Results on one substance are retold here after ChEMBL document CHEMBL1145191, “NMR studies reveal structural differences between the gallium and yttrium complexes of DOTA-D-Phe1-Tyr3-octreotide” (J Med Chem, 2005).

The data set is described as follows: Half-life time of the compound. The data set is classed as ADME.

GaIII-DOTATOC: the T1/2 was 1.13 h.
